Read-outs that look alike come from different tables or passages of the source.

The results in this text go back to publication PMC5722316, “Synthesis of novel purpurealidin analogs and evaluation of their effect on the cancer-relevant potassium channel KV10.1” (PLoS ONE, 2017).

Data set [1] deals with Xenopus oocytes. Kind of data set: 48-h incubation of Xenopus oocytes, oocyte quality. As to conditions: 10 μM. The format is cell-based, Xenopus laevis. The text has this: A dose-dependent antiproliferative and cytotoxic effect was not only observed on the KV10.1-expressing cells but also on the control cell lines.
Data set [2] has as its target T1, hKV10.1a (Homo sapiens, UniProt O95259).
T1 construct: expressed in transfected cells; host or cells: Xenopus laevis oocytes injected with cRNA transcribed from the hKV10.1a-pSGEM plasmid
T1 sequence (O95259 1-962 isoform O95259-2): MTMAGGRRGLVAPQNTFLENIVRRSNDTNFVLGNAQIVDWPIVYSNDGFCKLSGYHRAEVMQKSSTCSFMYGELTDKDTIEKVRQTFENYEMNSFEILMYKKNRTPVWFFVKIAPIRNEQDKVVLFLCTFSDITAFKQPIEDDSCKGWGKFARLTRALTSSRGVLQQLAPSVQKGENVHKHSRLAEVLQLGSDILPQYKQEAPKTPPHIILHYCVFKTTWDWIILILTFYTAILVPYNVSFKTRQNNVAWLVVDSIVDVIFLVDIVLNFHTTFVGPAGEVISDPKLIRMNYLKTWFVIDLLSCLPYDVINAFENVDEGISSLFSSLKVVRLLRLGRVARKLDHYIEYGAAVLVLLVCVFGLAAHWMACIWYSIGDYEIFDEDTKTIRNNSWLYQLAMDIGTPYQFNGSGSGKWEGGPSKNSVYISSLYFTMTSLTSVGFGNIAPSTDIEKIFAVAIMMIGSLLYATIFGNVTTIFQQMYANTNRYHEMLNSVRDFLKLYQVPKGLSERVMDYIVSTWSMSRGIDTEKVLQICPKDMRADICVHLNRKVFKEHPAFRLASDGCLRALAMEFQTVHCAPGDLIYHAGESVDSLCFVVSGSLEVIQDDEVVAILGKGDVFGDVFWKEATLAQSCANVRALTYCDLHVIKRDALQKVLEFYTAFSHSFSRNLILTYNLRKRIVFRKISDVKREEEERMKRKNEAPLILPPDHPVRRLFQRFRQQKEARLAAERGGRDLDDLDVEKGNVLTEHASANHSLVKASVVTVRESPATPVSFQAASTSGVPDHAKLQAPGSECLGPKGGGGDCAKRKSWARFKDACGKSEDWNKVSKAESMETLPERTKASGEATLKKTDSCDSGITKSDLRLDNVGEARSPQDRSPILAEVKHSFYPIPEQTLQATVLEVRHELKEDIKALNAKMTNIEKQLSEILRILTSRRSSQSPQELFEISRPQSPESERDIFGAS
The data set can be described thus: Two-electrode voltage-clamp recordings of KV10.1 currents in Xenopus laevis oocytes. The format is cell-based. The source says:
For the expression of hKV10.1a (GeneBank accession number: NM_002238.3) in Xenopus oocytes, the hKV10.1a-pSGEM plasmid was linearized with SfiI (ThermoFisher Scientific, Waltham, Massachusetts, USA) and transcribed using the T7 mMESSAGE-mMACHINE transcription kit (Ambion®, Carlsbad, California, USA).
Stage V-VI Xenopus laevis (African clawed frog) oocytes were isolated by partial ovariectomy. Mature female animals were purchased from Nasco (Fort Atkinson, Wisconsin, USA) and were housed in the Aquatic Facility (KU Leuven) in compliance with the regulations of the European Union (EU) concerning the welfare of laboratory animals as declared in Directive 2010/63/EU. The use of Xenopus laevis was approved by the Animal Ethics Committee of the KU Leuven (Project nr. P038/2017). Prior to harvesting the oocytes, the animals were anesthetized by a 15-min submersion in 0.1% tricaine methanesulfonate (pH 7.0). Isolated oocytes were defolliculated with 1.5 mg/mL collagenase.
Defolliculated oocytes were injected with 4 nL of cRNA at a concentration of 1 ng/nL using a micro-injector (Drummond Scientific®, Broomall, Pennsylvania, USA). The oocytes were incubated in a solution containing (in mM): NaCl, 96; KCl, 2; CaCl2, 1.8; MgCl2, 2 and HEPES, 5 (pH 7.4), supplemented with 50 mg/L gentamycin sulfate.
Two-electrode voltage-clamp recordings were performed at room temperature (18–22°C) using a Geneclamp 500 amplifier (Molecular Devices, USA) controlled by a pClamp data acquisition system (Axon Instruments®, Union City, California, USA). Whole cell currents from oocytes were recorded 1–4 days after injection. Bath solution composition was (in mM): NaCl, 96; KCl, 2; CaCl2, 1.8; MgCl2, 2 and HEPES, 5 (pH 7.5). Voltage and current electrodes were filled with a 3 M solution of KCl in H2O. Resistances of both electrodes were kept between 0.5 and 1.5 MΩ. The elicited KV10.1 currents were filtered at 1 kHz and sampled at 2 kHz using a four-pole low-pass Bessel filter. Leak subtraction was performed using a -P/4 protocol. KV10.1 currents were evoked by 2-s depolarizing pulses to 0 mV from a holding potential of -90 mV unless otherwise indicated.
All electrophysiological data are presented as means ± S.E.M of n ≥ 3 independent experiments unless otherwise indicated. All data was analyzed using pClamp Clampfit 10.4 (Molecular Devices®, Downingtown, Pennsylvania, USA) and OriginPro 8 (Originlab®, Northampton, Massachusetts, USA) or GraphPad Prism 5 software (GraphPad Software, Inc., San Diego, California, USA).

Take `COc1ccc(C(=O)NCCc2cc(Br)c(OCCCN(C)C)c(Br)c2)cc1Cl` [Compound 5, 3-Chloro-N-[3,5-dibromo-4-[3-(dimethylamino)propoxy]phenethyl]-4-methoxybenzamide]: the “oocyte quality (visual and electrophysiological observation)” value in data set [1] is on record as “did not result in noticeable deterioration of the oocyte quality”. The “remaining current, % of the control current” value in data set [2] (10 μM added during 20-s continuous step to 30 mV) is “approximately 50%”. Further, the “reversibility of KV10.1 inhibition” value in data set [2] (10 μM, wash-out) was “reversible”. In addition, the “effect on KV10.1 inactivation (two-pulse protocol)” value in data set [2] (10 μM, 1.5-s prepulse -140 mV to 50 mV, 0.5-s test pulse to 30 mV) was “an apparent inactivation is induced”. The inhibition at 10 µM is 51 ± 3% in data set [2] (10 μM, 2-s depolarizing pulses to 0 mV from -90 mV, read-out: KV10.1 current inhibition) and 53 ± 4% in data set [2] (10 μM, oocyte clamped at -90 mV for 10 minutes, then 2-s pulse to 0 mV, read-out: KV10.1 current inhibition after clamping at -90 mV). Besides, the “shift of activation curve (ΔV1/2) to more negative potentials” value in data set [2] (10 μM, ND96 (2 mM extracellular K+), Boltzmann fit) came to 21.0 ± 1.6 mV. The “half-maximal voltage of activation (V1/2) in presence of compound” value in data set [2] (10 μM, ND96 (2 mM extracellular K+), control V1/2 = 23.2 ± 0.4 mV) is on record as 2.1 ± 0.4 mV. The “slope factor k of activation curve in presence of compound” value in data set [2] (10 μM, ND96, control k = 15.5 ± 0.4) is 13.8 ± 0.3. Further, the “time constant (τ) of wash-out” value in data set [2] (10 μM, one phase association equation) is ~ 20 s. Also, the “exponential time constant (τ) of wash-in” value in data set [2] (10 μM, one phase decay equation) is listed as 5.3 s. In data set [2] (40 μM, extracellular perfusion, average ± SEM), this compound displayed a KV10.1 current inhibition of 86.9 ± 1.3%. In addition, the inhibition at 40 µM in data set [2] (40 μM, extracellular perfusion, average ± SEM, read-out: KV10.1 current inhibition) came to 87 ± 1%. For the same compound, the Hill coefficient in data set [2] (8 concentrations 0.04 μM to 80 μM, logistic dose-response fit) turned out to be 1.6 ± 0.3. Further, the IC50 in data set [2] (8 concentrations 0.04 μM to 80 μM, logistic dose-response fit, read-out: IC50 of KV10.1 current inhibition) is 7.7 ± 1 µM. Also, the “competition plot with mibefradil” value in data set [2] (mixtures p*10 μM 5 and (1-p)*10 μM mibefradil, 7 ratios) is “compete for the same binding site”.

Broadly, the inhibition is the percentage by which the read-out fell short of the control. As a reminder, the Hill coefficient is the slope factor of the fitted curve. What is called IC50 is the midpoint of a concentration-inhibition curve.
